Earlier results, collected in patent publication US20240368262A1, “A MYOSTATIN PATHWAY INHIBITOR IN COMBINATION WITH A GLP-1 PATHWAY ACTIVATOR FOR USE IN TREATING METABOLIC DISORDERS” (SCHOLAR ROCK, INC., priority 2021, published 2024).

Tested on: GIP and GLP-1 receptor
Conditions: Rosenstock et al., Lancet; cited from earlier work

For Tirzepatide, the body weight is given as “reduce body weight” and the glycemic control is given as “improve glycemic control”.
